Consider three compounds from article PMC10287695, “Non-covalent inhibitors of thioredoxin glutathione reductase with schistosomicidal activity in vivo” (Nature Communications, 2023).

Data set [1] concerns the target T1, TGR (Schistosoma mansoni, UniProt Q962Y6, X597U).
T1 construct: made in house
Description: Superoxide production (pyrogallol red). Type of data set: biochemical, S. mansoni. The following applies: replicates. The essentials:
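TGR (500 nM) with 100 µM NADPH and 20–50 µM inhibitor was preincubated at room temperature for 30 min or 2 h. Samples were then added to 50 µM pyrogallol red with 300 µM NADPH, ± SOD, and A340/A540 were followed for 2 h.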

Data set [2] deals with T2, TGR (Schistosoma mansoni, UniProt Q962Y6).
T2 construct: made in house
T2 sequence (Q962Y6 1-598): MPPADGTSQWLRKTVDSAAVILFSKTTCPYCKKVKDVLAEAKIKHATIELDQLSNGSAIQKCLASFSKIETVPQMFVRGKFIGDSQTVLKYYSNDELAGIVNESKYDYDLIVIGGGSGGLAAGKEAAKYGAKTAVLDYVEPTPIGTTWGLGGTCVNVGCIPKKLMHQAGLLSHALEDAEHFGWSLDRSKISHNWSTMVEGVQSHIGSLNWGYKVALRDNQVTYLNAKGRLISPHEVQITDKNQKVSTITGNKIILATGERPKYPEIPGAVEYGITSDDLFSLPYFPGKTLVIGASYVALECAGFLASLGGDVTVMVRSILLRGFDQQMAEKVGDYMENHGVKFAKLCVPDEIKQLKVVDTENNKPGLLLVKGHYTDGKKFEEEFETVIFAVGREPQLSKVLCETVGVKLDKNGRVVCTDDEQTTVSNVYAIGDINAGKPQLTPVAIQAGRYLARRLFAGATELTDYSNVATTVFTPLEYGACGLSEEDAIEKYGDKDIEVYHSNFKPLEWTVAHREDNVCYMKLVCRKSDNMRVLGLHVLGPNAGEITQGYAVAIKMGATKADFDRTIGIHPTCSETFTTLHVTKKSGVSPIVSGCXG
Description: NADPH dependence of inhibition. Type of data set: biochemical. On the set-up: unit not given here. The following applies: panel b, replicates; for Rate, no NADPH: preincubation no NADPH; for Rate, with NADPH: preincubation with NADPH. Here is the method:
TGR was incubated at room temperature with inhibitor in the presence or absence of 100 µM NADPH for 15 min. DTNB (3 mM) and NADPH (100 µM) were added, and the reaction was monitored at A412 for 5 min to determine reaction rate. The assay was done in triplicate.

Data set [3] has as its target T1, TGR. Nature of the data set: NADPH consumption (oxidase activity). As to conditions: replicates. Type of data set: biochemical, S. mansoni. In outline: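 Enzyme (500 nM) preincubated 30 min with compound (TRi-1, Stattic 50 µM; AF 20 µM) and 100 µM NADPH, desalted, then mixed with 100 µM NADPH; NADPH consumption read at 340 nm. Other compounds (50 µM) run without desalting, preincubation 30 min or 2 h.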

Data set [4] deals with S. mansoni juvenile worms (21 days). Nature of the data set: Schistosomicidal activity ex vivo, juvenile worms (21 days). It is filed as cell-based. The following applies: for viability at 5 µM / viability at 15 µM / viability at 30 µM: Schistosoma mansoni, 23 day S. mansoni worms, 48 HR; for viability at 5 µM: Conc. 5 µM; for viability at 15 µM: Conc. 15 µM; for viability at 30 µM: Conc. 30 µM; for LD50 ex vivo S. mansoni 21 days: juvenile worms, 48 h exposure. How it is done:
(§1) Three-week old, female Swiss-Webster mice obtained from the Charles River were housed in the Comparative Research Center of Rush University Medical Center. Mice were infected by percutaneous tail exposure to about 200 S. mansoni or 50 S. japonicum cercaria for adult worms and about 1000 cercaria for juvenile S. mansoni worms through natural transdermal penetration of the cercariae for 1 h[81].
(§2) DMSO formulated compounds were diluted with phenol red free M199 medium or RPMI medium for NTS or juvenile and adult worms, respectively, at <1% DMSO final concentrations. NTS, juvenile and adult worms from overnight cultures were tested against compounds in triplicate. Controls were treated with DMSO alone or 5 µM AF as a positive control in appropriate medium. […] Schistosome viabilities in the presence of the compounds were assessed using this formula: % Viability = Averages of Test / Averages of DMSO Control x 100.

A short description of data set [5]: Cytotoxicity in mammalian cells (Cell Titer Glo). It is filed as cell-based. The following applies: African green monkey, Vero cells; for viability at 24 h, 1 µM: Conc. 1 µM; for viability at 24 h, 5 µM: Conc. 5 µM; for viability at 24 h, 10 µM: Conc. 10 µM; for viability at 24 h, 25 µM: Conc. 25 µM; for viability at 24 h, 50 µM: Conc. 50 µM; for viability at 24 h, 100 µM: Conc. 100 µM. How it is done:
Following overnight incubation, formulated DMSO-compound stock solutions were diluted with DMEM at <1% DMSO final concentrations. […] Vero cells treated similarly with different concentrations of PZQ, MZM and AF (Cayman Chemicals) were used as positive controls.
In general terms: In ATP-based viability assays light output follows the ATP content of the culture.

In data set [6] the test system is TGR in newly transformed schistosomula (NTS). Description: TGR inhibition in NTS with TRFS-Green fluorescent probe. Type of data set: cell-based, S. mansoni. The following applies: 2 h with inhibitor (30 µM; AF 3 µM) then TRFS-Green 10 µM. The essentials: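 TGR activity in NTS was probed with the fluorescent reagent TRFS-Green. Parasites in M199 medium with glucose, antibiotics and heat-inactivated serum were kept overnight in clear-bottom plates, exposed to 10 µM probe for 4 h, then washed. Signal from probe uptake was read on a microplate imager (ex 438 nm, em 538 nm) hourly for 5 h and after 24 h.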

Data set [7] relates to S. japonicum adult worms. Nature of the data set: Schistosomicidal activity ex vivo, S. japonicum adult worms. The following applies: for LD50 ex vivo S. japonicum adult: 48 h exposure; for viability at 5 µM / viability at 15 µM / viability at 30 µM: Schistosoma japonicum, S. japonicum adult worms, 48 hr; for viability at 5 µM: Conc. 5 µM; for viability at 15 µM: Conc. 15 µM; for viability at 30 µM: Conc. 30 µM. Type of data set: cell-based. How it is done:
as §1, §2

[8] abbreviates: second of the two columns per substance (condition not given).

Several values for one entry are separate records, joined by “and”; a condition that tells them apart may be missing. Identical values can stand only once. Marks after values point to notes of the source that are not given here. Bounds are passed on as bounds.

In the case of `C#CCN(Cc1nc(-c2ccccc2)oc1C)[C@@H]1C[C@@H]2C[C@H]([C@H]1C)C2(C)C` [Compound 6], the “Superoxide production, Pyrogallol red consumption monitored ΔA540” value in data set [1] (condition not given) was -0.0001397 and -0.0001399. Further, the “Superoxide production, Pyrogallol red consumption monitored ΔA540” value in data set [1] (setting [8]) is -5.466e-5 and -1.08e-5 and -2.977e-5. For the same compound, in data set [2], the “Rate, no NADPH” value is 0.02684 and 0.02786 and 0.03567; the “Rate, with NADPH” value is 0.00166 and 0.0006764 and 0.001495. In addition, the “NADPH consumption (rate/ΔOD340)” value in data set [3] was -0.0004895 and -0.0006543 and -0.0006565. Also, in data set [4], the viability (as a rule, the share of living cells, or the viability signal relative to a control) at 5 µM was determined as 73.2%; the viability at 15 µM worked out at 60.7%; the viability at 30 µM amounted to 56.8%; the “LD50 ex vivo S. mansoni 21 days” value was >30^a µM. In data set [5], this compound gave a viability at 24 h, 1 µM of 99.1%; a viability at 24 h, 5 µM of 99%; a viability at 24 h, 10 µM of 91.1%; a viability at 24 h, 25 µM of 86.8%. In data set [5], the viability at 24 h, 50 µM worked out at 79.9% and the viability at 24 h, 100 µM turned out to be 63.9%.

For the compound `Cc1oc(C2CCCCC2)nc1C(=O)N[C@@H]1C[C@@H]2C[C@H]([C@H]1C)C2(C)C` [Compound 7], in data set [6], the “TRFS-Green fluorescence in NTS” value was “significant decreases in fluorescence”. In data set [7], the “LD50 ex vivo S. japonicum adult” value came to 26.8 ± 1.62 µM, the viability at 5 µM worked out at 89%, the viability at 15 µM was found to be 71.1% and the viability at 30 µM amounted to 39.8%. In data set [1] (condition not given), the “Superoxide production, Pyrogallol red consumption monitored ΔA540” value is -0.0001477 and -0.0001374 and -0.0001423. For the same compound, the “Superoxide production, Pyrogallol red consumption monitored ΔA540” value in data set [1] (setting [8]) was -5.501e-5 and -2.739e-5 and -2.749e-5. Besides, in data set [2], the “Rate, no NADPH” value was 0.05983 and 0.05966 and 0.05987; the “Rate, with NADPH” value is 0.003086 and 0.003742 and 0.002131. For the same compound, the “NADPH consumption (rate/ΔOD340)” value in data set [3] was -0.0008479 and -0.0008204 and -0.0008408. Besides, in data set [4], the viability at 5 µM came out at 77.6%, the viability at 15 µM is 63.5%, the viability at 30 µM was determined as 58.7% and the “LD50 ex vivo S. mansoni 21 days” value was >30^a µM. In data set [5], this compound had a viability at 24 h, 5 µM of 92%; a viability at 24 h, 10 µM of 91.8%; a viability at 24 h, 25 µM of 89.5%; a viability at 24 h, 50 µM of 83.6%. The compound also gave a viability at 24 h, 35 µM in data set [5] (Conc. 35 µM) of 85.8%.

Regarding `C[C@@H]1[C@H]2C[C@@H](C[C@H]1NCc1nc3ccccc3n1C1CCCCCC1)C2(C)C` [Compound 8], the “TRFS-Green fluorescence in NTS” value in data set [6] is on record as “significant decreases in fluorescence”. Besides, in data set [7], the “LD50 ex vivo S. japonicum adult” value was 25.8 ± 1.87 µM, the viability at 5 µM worked out at 70.6%, the viability at 15 µM came out at 60.8% and the viability at 30 µM amounted to 43.4%. Further, in data set [2], the “Rate, no NADPH” value is 0.045 and 0.0455; the “Rate, with NADPH” value is 0.006 and 0.0015 and 0.0024. Besides, in data set [4], the viability at 5 µM worked out at 83.5%, the viability at 15 µM turned out to be 66%, the viability at 30 µM was found to be 57.2% and the “LD50 ex vivo S. mansoni 21 days” value was >30^a µM. In data set [5], this compound yielded a viability at 24 h, 1 µM of 97%; a viability at 24 h, 5 µM of 93.8%; a viability at 24 h, 10 µM of 88.6%; a viability at 24 h, 25 µM of 69.7%. In data set [5], the viability at 24 h, 50 µM is 44.6% and the viability at 24 h, 100 µM amounted to 4.99%.
